Data from ChEMBL document CHEMBL1201862, “PubChem BioAssay data set” (2004).
Active and inactive are the calls of the source.

Experiments:
[1] = target: G-protein coupled receptor 55 (Homo sapiens, UniProt Q9Y2T6); assay: GPR55 antagonists blocking LPI-driven arrestin recruitment, primary screen, imaging, U2OS, beta-arrestin-GFP, LPI agonist (AID 2013); assay type: functional;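 also: antagonist potency measured as reduced agonist-driven arrestin aggregation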
Saccharomyces cerevisiae = assay: NALP1 inhibitor project selectivity study, Caspase-1/ASC signal blockade IC50 in S. cerevisiae (AID 488863); assay type: functional, organism-based
[2] = target: NACHT, LRR and PYD domains-containing protein 1 (Homo sapiens, UniProt Q9C000); assay: NALP1 inhibitors in yeast, dose response, luminescent (AID 488860); assay type: functional
[3] = inhibitors of firefly luciferase expression or activity, dose response, H4 neuroglioma cells, luminescence (AID 1990); assay type: functional, cell-based
[4] = Luminescence Cell-Based Dose Response HTS to Identify Inhibitors of 5'UTR Stem-Loop Driven Prion Protein mRNA Translation in H4 Neuroglioblastoma Cells. [Related pubchem assays: 1827 (Project Summary), 1813 (Primary HTS)]; assay type: functional
[5] = inhibitors of SNCA 5'UTR-driven reporter translation, confirmation, H4 neuroglioma cells, luminescence (AID 1988); assay type: functional, cell-based
[6] = THP-1 cell cytotoxicity, dose response, cytotoxicity control for non-replicating M. tuberculosis project (AID 489025); assay type: functional
[7] = HepG2 cell cytotoxicity, dose response, cytotoxicity control for non-replicating M. tuberculosis project (AID 489018); assay type: functional; settings: Mycobacterium tuberculosis
[8] = Vero E6 cell cytotoxicity, dose response, cytotoxicity control for non-replicating M. tuberculosis project, secondary assay (AID 492998); assay type: functional, VeroE6; settings: Vero C1008
cells = assay type: functional
[9] = Shn3 3'UTR reporter inhibitors, dose response, cell-based, Clone20 osteoblasts, firefly luciferase, cherry-picked (AID 624132); assay type: functional;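 also: firefly luciferase luminescence from reporter carrying the Shn3 3'UTR in osteoblasts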
[10] = HepG2 cell cytotoxicity, dose response, cytotoxicity control for Shn3 inhibitor project, CellTiter-Glo, cherry-picked (AID 624134); assay type: functional, cell-based
[11] = control 3'UTR Renilla luciferase suppression, dose response, counter-screen for Shn3 inhibitor project, cell-based, Clone20-Shn3RL, cherry-picked (AID 624133); assay type: functional
[12] = target: DNA damage-inducible transcript 3 protein (Mus musculus, UniProt P35639); assay type: functional, Cricetulus griseus
[13] = target: T1, Delta-type opioid receptor (Homo sapiens, UniProt P41143); assay: HTS Image-Based Screen for Antagonists of the DOR Receptor. [Related pubchem assays (depositor defined):AID1777, AID1785, AID1786, AID2133]; assay type: functional
Mu-type opioid receptor = Mu-type opioid receptor (Homo sapiens, UniProt P35372); assay: HTS Image-Based Screen for Agonists of the MOR Receptor. [Related pubchem assays (depositor defined):AID1777, AID1785, AID1786, AID2133]; assay type: functional;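 also: imaging of beta-arrestin GFP recruitment into spots after receptor activation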
[14] = target: T1, Delta-type opioid receptor; assay: HTS Image-Based Screen for Agonists of the DOR Receptor. [Related pubchem assays (depositor defined):AID1777, AID1786, AID2133]; assay type: functional
[15] = target: T2, Kappa-type opioid receptor (Homo sapiens, UniProt P41145); assay type: functional
Beta-galactosidase [16] = target: T3, Beta-galactosidase (Escherichia coli, UniProt Q8VNN2); assay type: functional
[17] = target: T2, Kappa-type opioid receptor; assay type: functional; remark: listed apart in the source
[18] = target: Glucose-6-phosphate 1-dehydrogenase (Homo sapiens, UniProt P11413); assay: human G6PD enzyme inhibitors, dose response, selectivity assay for P. falciparum G6PD inhibitor project, biochemical, fluorescence (AID 504792); assay type: functional
[19] = inhibitors of intracellular T. cruzi replication, confirmation, NIH3T3 host cells, beta-gal luminescence (AID 2044); assay type: functional, cell-based;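 also: intracellular parasites grown in NIH/3T3 mouse fibroblasts as host cells; luminescent beta-galactosidase reporter signal from transgenic T. cruzi replicating inside host cells; inhibitors lower the luminescence signal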
[20] = cytotoxicity toward NIH3T3 fibroblasts, dose response, counter-screen, cell-based, ATP luminescence, mouse fibroblasts (AID 2010); assay type: functional;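 also: cells exposed to compound for about 90 hours before reading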
[21] = target: T4, E3 ubiquitin-protein ligase XIAP (Homo sapiens, UniProt P98170); assay: Counter Screen using XIAP-Bir3 for Chemical Antagonists of Bir1/2 domains of IAP-family anti-apoptotic proteins. [Related pubchem assays (depositor defined):AID1018, AID1449, AID1514, AID1638, AID1749, AID1750, AID488957, AID488963]
[22] = target: T4, E3 ubiquitin-protein ligase XIAP; assay: XIAP antagonists, biochemical, IAP family, fluorescence polarization (AID 1018); assay type: functional
[23] = target: Glyceraldehyde-3-phosphate dehydrogenase (Homo sapiens, UniProt P04406)
[24] = target: Alkaline phosphatase, placental type (Homo sapiens, UniProt P05187); assay: PLAP enzyme inhibitors, confirmation, biochemical, luminescence (AID 1512); assay type: functional
[25] = target: T5, Alkaline phosphatase, tissue-nonspecific isozyme (Homo sapiens, UniProt P05186); assay: human TNAP enzyme inhibitors, SAR follow-up, biochemical, luminescent, dose response (AID 1056)
T5 sequence (P05186 whole entry): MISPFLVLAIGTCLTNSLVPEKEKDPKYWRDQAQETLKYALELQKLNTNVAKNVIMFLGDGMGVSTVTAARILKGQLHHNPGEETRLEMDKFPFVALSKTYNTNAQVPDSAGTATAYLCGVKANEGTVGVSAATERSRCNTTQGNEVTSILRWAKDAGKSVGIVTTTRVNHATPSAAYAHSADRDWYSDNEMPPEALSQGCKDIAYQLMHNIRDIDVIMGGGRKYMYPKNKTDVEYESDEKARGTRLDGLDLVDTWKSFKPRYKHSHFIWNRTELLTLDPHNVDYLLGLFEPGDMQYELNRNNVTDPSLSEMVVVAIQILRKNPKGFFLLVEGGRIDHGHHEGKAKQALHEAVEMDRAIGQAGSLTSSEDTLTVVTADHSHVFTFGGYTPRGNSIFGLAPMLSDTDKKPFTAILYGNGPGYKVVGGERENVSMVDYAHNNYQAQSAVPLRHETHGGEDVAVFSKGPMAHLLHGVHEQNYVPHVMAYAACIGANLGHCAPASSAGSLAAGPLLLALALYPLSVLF

[26] = NIH-3T3 fibroblast cytotoxicity, dose response, cytotoxicity control, cell-based, fluorescence, Alamar Blue, secondary assay (AID 2327); assay type: functional;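 also: NIH-3T3 mouse fibroblasts cultured with fluconazole at 8 µg/mL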
[27] = test system: Streptococcus sp. 'group A'; assay: growth inhibition of control SK(-) GAS strain, dose response, counter-screen for streptokinase expression inhibitor project, luminescence, kanamycin, BacTiterGlo, confirmation (AID 1900); assay type: functional, organism-based
Beta-galactosidase [28] = target: T3, Beta-galactosidase; assay: PubChem AID 485352; assay type: functional
Streptokinase A = target: T6, Streptokinase A (Streptococcus pyogenes serotype M1, UniProt P10520); assay: S. pyogenes streptokinase expression inhibitors, potency, dose response, plasminogen activation absorbance, OD405 (AID 1914); assay type: functional, Streptococcus pyogenes M1 GAS;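 also: secreted streptokinase activity via plasminogen activation per viability signal from cell pellet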
T6 sequence (P10520 whole entry): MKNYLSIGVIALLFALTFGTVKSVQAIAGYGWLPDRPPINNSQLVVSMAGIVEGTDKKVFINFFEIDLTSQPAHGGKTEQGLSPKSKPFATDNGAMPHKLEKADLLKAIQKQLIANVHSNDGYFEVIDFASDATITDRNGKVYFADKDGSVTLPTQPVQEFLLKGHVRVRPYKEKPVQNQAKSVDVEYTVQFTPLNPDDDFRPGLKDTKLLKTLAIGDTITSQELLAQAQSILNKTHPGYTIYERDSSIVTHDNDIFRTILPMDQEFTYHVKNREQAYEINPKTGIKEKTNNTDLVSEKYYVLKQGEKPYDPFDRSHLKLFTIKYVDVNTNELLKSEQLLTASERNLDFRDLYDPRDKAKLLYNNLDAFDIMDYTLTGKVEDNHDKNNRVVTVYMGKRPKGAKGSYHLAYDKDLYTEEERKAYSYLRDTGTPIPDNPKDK

[29] = C. albicans growth with fluconazole, confirmation, fluorescence, retest (AID 2467); assay type: functional, cell-based
[30] = target: T7, Type-1 angiotensin II receptor (Homo sapiens, UniProt P30556); assay: AT1 receptor antagonists, dose response, selectivity assay for APJ receptor antagonist project, cell-based, uHTS hits (AID 463214); assay type: functional;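 also: antagonist potency against angiotensin II stimulated AT1 response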
T7 sequence (P30556 whole entry): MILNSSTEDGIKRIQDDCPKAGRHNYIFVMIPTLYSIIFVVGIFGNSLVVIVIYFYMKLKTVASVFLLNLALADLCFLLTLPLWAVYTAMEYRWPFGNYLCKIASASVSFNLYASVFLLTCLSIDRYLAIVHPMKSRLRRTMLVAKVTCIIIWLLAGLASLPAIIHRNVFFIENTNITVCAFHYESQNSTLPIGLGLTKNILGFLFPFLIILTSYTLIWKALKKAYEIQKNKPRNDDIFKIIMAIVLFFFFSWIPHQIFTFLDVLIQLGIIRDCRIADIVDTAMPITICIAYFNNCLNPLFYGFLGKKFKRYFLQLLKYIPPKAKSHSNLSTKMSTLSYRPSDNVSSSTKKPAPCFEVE

Streptococcus = assay: Group A Streptococcus viability loss, dose response, counter-screen for streptokinase expression inhibitor project, luminescence, BacTiterGlo (AID 1915); assay type: functional, organism-based;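 also: potency for reduction of bacterial viability or growth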
Nonstructural protein 1 = Nonstructural protein 1 (Influenza A virus, UniProt Q194T2); assay type: functional, Influenza A virus (A/California/07/2009(H1N1))
[31] = target: T8, Heat shock factor protein 1 (Mus musculus, UniProt P38532); assay: HSF1 potentiators in luciferase reporter cells, confirmation, cell-based, NIH3T3, luminescence, dose retest (AID 435004); assay type: functional;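 also: stress induced by proteasome inhibitor MG132 added 30 min after compound; luciferase reporter driven by HSF1 response element in NIH3T3 cells; actives raise luminescence as potentiators of the MG132 stress response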
T8 sequence (P38532 whole entry): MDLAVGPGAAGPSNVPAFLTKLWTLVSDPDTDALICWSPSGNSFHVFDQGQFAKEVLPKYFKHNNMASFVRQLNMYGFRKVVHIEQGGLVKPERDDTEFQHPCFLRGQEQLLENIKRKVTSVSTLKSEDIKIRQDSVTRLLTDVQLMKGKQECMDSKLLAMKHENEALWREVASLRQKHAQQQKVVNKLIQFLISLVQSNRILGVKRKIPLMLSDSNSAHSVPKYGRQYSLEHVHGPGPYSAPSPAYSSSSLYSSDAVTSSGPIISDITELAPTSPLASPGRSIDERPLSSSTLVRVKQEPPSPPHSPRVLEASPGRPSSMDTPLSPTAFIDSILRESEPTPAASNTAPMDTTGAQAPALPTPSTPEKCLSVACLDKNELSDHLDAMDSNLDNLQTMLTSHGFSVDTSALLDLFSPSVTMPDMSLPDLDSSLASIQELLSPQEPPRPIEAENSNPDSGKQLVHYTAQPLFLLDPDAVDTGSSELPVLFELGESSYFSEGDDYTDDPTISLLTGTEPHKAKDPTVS

[32] = target: Heat shock protein HSP 90-alpha (Homo sapiens, UniProt P07900); assay type: functional, organism-based
INS1 = assay: beta cell apoptosis inhibitors, cytokine rescue, dose response, luminescence, retest (AID 449756); assay type: functional, cell-based; settings: Rattus norvegicus;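 also: cell death triggered by IL-1 beta plus TNF-alpha plus IFN-gamma mixture; protective hits raise ATP signal compared with cytokine alone wells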
Vero = assay: cells; assay type: functional; settings: Chlorocebus sabaeus

T1 sequence (P41143 whole entry): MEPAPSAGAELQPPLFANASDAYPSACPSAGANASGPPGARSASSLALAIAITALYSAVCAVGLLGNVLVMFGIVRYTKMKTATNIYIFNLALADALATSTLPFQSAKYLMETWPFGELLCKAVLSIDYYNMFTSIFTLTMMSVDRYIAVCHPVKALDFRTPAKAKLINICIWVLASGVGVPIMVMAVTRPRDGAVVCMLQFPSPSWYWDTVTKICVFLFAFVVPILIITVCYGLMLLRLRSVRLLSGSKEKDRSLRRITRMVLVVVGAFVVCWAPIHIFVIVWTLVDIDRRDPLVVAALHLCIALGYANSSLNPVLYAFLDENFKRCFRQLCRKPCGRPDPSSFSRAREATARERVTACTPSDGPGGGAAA
T4 sequence (P98170 whole entry): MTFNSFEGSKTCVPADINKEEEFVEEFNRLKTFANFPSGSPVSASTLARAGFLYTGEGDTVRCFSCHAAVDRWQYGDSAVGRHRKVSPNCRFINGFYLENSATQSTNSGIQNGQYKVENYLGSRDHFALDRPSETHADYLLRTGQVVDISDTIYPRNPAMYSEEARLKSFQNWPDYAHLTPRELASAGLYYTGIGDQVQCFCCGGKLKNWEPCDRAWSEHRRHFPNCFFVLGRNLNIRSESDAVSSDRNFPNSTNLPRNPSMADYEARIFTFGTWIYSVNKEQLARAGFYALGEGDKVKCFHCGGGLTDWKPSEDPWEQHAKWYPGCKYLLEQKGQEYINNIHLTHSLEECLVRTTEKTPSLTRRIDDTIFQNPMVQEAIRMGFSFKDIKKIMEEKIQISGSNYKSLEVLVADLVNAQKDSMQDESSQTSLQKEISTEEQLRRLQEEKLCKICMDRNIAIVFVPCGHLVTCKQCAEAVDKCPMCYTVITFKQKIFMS
T2 sequence (P41145 whole entry): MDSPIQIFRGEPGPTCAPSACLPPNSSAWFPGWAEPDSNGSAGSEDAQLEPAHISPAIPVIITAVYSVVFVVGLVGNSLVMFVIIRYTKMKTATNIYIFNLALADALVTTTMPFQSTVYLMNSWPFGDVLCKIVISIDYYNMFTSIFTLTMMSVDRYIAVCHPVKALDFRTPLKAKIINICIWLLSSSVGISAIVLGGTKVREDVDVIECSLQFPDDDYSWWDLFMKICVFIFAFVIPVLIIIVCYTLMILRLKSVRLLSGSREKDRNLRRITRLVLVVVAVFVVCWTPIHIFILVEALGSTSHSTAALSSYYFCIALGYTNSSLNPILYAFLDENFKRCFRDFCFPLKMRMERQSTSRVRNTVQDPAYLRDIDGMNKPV
T3 sequence (Q8VNN2 whole entry): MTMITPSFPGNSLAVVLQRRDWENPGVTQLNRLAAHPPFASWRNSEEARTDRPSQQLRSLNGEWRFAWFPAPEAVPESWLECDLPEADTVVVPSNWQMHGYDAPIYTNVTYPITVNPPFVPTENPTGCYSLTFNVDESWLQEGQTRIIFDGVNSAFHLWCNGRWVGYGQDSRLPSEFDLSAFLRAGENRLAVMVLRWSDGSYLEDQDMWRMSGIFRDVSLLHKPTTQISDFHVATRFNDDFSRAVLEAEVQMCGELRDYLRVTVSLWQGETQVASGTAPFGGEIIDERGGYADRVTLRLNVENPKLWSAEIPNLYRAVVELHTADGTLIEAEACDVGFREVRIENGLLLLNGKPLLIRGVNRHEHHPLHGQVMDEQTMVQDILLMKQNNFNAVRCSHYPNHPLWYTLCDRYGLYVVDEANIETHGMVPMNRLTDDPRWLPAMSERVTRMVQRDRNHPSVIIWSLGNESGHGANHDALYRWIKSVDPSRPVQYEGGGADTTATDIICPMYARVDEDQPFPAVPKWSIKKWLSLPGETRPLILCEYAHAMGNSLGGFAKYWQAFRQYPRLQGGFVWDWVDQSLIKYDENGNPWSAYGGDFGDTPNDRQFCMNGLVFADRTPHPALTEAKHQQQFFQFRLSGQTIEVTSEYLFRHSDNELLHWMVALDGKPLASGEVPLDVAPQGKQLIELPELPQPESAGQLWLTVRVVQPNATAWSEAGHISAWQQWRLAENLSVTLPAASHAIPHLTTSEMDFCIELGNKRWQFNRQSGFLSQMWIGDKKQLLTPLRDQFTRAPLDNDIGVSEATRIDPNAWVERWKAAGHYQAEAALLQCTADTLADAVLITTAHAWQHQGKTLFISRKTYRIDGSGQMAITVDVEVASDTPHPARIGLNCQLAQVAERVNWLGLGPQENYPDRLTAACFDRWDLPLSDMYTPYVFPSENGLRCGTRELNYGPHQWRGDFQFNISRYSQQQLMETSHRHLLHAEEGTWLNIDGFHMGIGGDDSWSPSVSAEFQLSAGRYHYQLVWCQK
Chain of DNA damage-inducible transcript 3 protein (P35639 whole entry): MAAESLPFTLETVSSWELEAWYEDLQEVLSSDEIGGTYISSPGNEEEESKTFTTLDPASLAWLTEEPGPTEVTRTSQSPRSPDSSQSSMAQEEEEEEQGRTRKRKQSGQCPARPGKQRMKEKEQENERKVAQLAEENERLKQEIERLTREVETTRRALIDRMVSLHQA
Chain of Alkaline phosphatase, placental type (P05187 whole entry): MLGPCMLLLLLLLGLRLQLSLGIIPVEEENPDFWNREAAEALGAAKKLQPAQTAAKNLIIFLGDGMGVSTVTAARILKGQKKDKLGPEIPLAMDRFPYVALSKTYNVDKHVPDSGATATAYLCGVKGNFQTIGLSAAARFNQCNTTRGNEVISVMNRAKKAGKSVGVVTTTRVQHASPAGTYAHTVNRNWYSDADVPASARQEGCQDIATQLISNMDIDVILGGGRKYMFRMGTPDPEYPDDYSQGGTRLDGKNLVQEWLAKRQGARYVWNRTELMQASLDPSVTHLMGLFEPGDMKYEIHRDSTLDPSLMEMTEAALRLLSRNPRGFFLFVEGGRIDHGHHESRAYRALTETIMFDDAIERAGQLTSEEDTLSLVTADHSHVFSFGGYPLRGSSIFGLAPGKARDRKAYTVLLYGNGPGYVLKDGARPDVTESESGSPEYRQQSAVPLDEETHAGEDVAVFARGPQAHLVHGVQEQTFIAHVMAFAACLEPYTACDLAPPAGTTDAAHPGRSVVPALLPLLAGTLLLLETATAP
Chain of Mu-type opioid receptor (P35372 whole entry): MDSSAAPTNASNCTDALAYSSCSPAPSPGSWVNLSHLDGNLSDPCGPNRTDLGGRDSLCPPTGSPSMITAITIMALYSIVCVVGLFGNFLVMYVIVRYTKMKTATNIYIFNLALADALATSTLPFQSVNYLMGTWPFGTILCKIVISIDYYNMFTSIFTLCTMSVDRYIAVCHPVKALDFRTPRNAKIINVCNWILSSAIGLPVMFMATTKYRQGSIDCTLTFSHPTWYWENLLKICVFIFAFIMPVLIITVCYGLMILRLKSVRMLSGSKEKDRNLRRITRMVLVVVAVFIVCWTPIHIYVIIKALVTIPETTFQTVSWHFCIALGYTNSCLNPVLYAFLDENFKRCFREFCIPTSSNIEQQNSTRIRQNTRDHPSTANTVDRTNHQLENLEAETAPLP
Chain of Glyceraldehyde-3-phosphate dehydrogenase (P04406 whole entry): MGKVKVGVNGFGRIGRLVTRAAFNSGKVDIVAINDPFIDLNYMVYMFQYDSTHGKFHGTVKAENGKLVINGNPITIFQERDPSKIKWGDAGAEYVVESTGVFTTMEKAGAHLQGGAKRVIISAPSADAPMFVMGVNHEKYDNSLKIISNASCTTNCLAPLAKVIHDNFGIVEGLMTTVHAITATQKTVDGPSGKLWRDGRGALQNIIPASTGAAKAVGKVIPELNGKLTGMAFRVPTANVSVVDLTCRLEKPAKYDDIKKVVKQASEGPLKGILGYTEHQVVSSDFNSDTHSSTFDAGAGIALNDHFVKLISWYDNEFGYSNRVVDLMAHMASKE
Chain of Glucose-6-phosphate 1-dehydrogenase (P11413 whole entry): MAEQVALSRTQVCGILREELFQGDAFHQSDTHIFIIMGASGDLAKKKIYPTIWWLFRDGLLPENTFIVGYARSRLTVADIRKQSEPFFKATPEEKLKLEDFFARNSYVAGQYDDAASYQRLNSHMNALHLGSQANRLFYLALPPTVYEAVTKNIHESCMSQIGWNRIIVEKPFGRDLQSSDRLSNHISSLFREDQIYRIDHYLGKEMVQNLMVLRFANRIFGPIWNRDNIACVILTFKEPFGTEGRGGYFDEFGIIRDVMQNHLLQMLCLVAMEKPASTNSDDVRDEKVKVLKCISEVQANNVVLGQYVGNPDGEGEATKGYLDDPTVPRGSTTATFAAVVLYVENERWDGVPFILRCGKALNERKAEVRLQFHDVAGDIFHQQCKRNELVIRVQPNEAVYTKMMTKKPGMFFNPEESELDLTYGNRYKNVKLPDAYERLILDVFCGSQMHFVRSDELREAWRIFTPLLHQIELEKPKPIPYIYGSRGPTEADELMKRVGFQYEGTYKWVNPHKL
Chain of Nonstructural protein 1 (Q194T2 whole entry): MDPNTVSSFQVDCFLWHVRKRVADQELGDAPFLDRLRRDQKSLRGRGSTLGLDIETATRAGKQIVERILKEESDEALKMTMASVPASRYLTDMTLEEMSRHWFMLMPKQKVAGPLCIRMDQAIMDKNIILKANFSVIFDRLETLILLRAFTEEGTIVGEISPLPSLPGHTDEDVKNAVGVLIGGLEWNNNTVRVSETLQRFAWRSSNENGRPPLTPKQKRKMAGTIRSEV
Chain of G-protein coupled receptor 55 (Q9Y2T6 whole entry): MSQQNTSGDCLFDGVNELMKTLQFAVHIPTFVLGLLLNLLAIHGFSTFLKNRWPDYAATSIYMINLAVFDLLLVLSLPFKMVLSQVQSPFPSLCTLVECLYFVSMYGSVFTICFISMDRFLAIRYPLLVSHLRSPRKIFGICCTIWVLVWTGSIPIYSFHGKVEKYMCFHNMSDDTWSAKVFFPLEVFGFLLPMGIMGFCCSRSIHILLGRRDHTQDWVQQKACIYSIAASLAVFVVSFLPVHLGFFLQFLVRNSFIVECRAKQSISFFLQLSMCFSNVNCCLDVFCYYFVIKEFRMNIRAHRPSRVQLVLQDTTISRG

O=C(O)c1ccc(Cl)c(S(=O)(=O)Nc2ccc(OCc3ccccc3)cc2)c1
IC50 [1]: 4.05 µM (active)

CC(C)NC(=O)CCCOc1ccc(Cl)cc1Cl
IC50 (Saccharomyces cerevisiae): 35.8 µM (active) | IC50 [2]: 40 µM (active)

CCOc1cccc(CNCCc2c(C)[nH]c3ccc(OC(F)(F)F)cc23)c1O
EC50 [3]: > 120 µM (not active) | EC50 [4]: 17.2 µM (active) | EC50 [5]: 11.2 µM (active) | CC50 [6]: 6.17 µM (active) | CC50 [7]: 5.75 µM (active) | CC50 [8]: 9.94 µM (active) | IC50 (cells): 10.5 µM (active) | AC50 [9]: 0.611 µM (active) | AC50 [10]: 8.24 µM (active) | AC50 [11]: 18.1 µM (active)

COc1ccc(CNc2oc(-c3cccc4ccccc34)nc2C#N)cc1
Absolute IC50 (CHOP) [12]: 10 µM

CC1CCc2c(nc3sc4c(c3c2N)CCCC4)C1 (configuration not stated)
IC50 [13]: > 32 µM (inactive) | EC50 (Mu-type opioid receptor): > 32 µM (inactive) | EC50 [14]: > 32 µM (inactive) | IC50 [15]: 2.2 µM (active) | EC50 (Beta-galactosidase [16]): > 31.5 µM (inactive) | IC50 [17]: > 32 µM | IC50 [18]: > 80 µM (inactive)

O=C(NNc1ccccc1[N+](=O)[O-])Nc1ccc(Cl)c(Cl)c1
Absolute IC50 (CHOP) [12]: 10 µM

COc1ccc(-c2nnc(NC(=O)c3ccc(S(=O)(=O)N4COCC4(C)C)cc3)o2)cc1
EC50 [19]: 2.09 µM (active) | EC50 [20]: 7.83 µM (active) | CC50 [6]: 7.22 µM (active) | CC50 [7]: 8.49 µM (active) | CC50 [8]: 6.01 µM (active) | IC50 (cells): 6.25 µM (active)

CCCS(=O)(=O)N1CCN(C(=O)c2ccc(-c3ccccc3)cc2)CC1
IC50 [21]: > 100 µM (inactive) | IC50 [22]: > 100 µM (not active)

COc1ccc(CCc2nc(N)nn2-c2ccccc2)cc1OC
IC50 [23]: > 100 µM (not active) | IC50 [24]: > 100 µM (inactive) | IC50 [25]: > 100 µM (inactive)

CC1CN(S(=O)(=O)c2cccc(C(=O)Nc3ccc(S(=O)(=O)Nc4ncccn4)cc3)c2)CC(C)O1 (configuration not stated)
IC50 [21]: > 100 µM (inactive) | IC50 [22]: > 100 µM (not active)

Oc1cc(CSc2ccc(Cl)cc2)nc(-c2ccccn2)n1
EC50 [26]: 9.84 µM (active) | IC50 [13]: > 32 µM (inactive) | EC50 (Mu-type opioid receptor): > 32 µM (inactive) | EC50 [27]: 0.489 µM (active) | EC50 [14]: > 32 µM (inactive) | EC50 (Beta-galactosidase [28]): > 40 µM (inactive) | EC50 (Streptokinase A): > 150 µM (not active) | EC50 [29]: 0.1 µM (active) | EC50 [19]: 0.549 µM (active) | IC50 [30]: 13 µM (active) | IC50 [15]: 4.86 µM (active) | EC50 [20]: 5.92 µM (active) | EC50 (Beta-galactosidase [16]): > 31.5 µM (inactive) | IC50 [17]: > 32 µM | EC50 (Streptococcus): 6.82 µM (active) | IC50 (Nonstructural protein 1): 14.4 µM (active) | EC50 [31]: 5.93 µM (active) | AC50 [32]: 23.3 µM (active) | AC50 (INS1): 2.74 µM (active) | CC50 (Vero): 5.82 µM (active)

CCn1c(SCC(=O)c2ccc(O)c(O)c2)nnc1-c1ccc(Cl)cc1
IC50 [24]: 8.76 µM (active) | IC50 [25]: > 100 µM (inactive)
